From patent US12637413B2, “Fatty acid amide hydrolase (FAAH) cleavable prodrugs of thyromimetics and combination with peripherally restricted FAAH inhibitors” (Autobahn Therapeutics, Inc., priority 2021, dated 2026) come the findings set out here.

The target of assay [1] is T1, recombinant human FAAH (rhFAAH) (Homo sapiens, UniProt O00519).
T1 construct: purchased Cayman Chemical (Ann Arbor, MI, USA)
T1 sequence (O00519 1-579): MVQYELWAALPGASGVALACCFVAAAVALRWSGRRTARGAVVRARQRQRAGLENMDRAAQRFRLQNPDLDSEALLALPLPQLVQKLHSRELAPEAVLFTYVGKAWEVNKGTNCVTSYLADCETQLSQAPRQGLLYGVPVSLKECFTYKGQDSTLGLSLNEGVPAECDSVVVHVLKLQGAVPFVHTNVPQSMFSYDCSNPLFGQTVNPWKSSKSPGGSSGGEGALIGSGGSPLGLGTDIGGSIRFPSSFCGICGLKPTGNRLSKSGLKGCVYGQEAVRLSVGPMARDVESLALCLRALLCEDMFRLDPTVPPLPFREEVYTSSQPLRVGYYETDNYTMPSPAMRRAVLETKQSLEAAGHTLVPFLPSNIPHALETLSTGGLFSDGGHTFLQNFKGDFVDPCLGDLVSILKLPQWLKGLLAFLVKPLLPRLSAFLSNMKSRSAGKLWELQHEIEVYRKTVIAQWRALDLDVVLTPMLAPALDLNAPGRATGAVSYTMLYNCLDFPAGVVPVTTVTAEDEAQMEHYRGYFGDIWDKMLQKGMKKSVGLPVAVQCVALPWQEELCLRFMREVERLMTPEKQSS
In words: FAAH substrate evaluation (acid metabolite formation). The class given is biochemical. The note with it: observed rate constant for acid metabolite formation; 0.5 ng/μL rhFAAH, 1 μM test compound, room temperature, 0-60 minutes. The method, then: Purified recombinant human FAAH (rhFAAH) was purchased from Cayman Chemical (Ann Arbor, MI, USA). The total volume for each incubation was 400 μL containing a final 0.5 ng/μL rhFAAH, 1 μM test compound, 1.25% ethanol or 1 μM PF-3845 (FAAH inhibitor), and 0.1% bovine serum albumin in Tris-EDTA buffer at pH 8.0). The positive control was LL-341001. The incubation was conducted at the room temperature. At 0, 5, 15, 30 and 60 minutes, an aliquot of 30 μL reaction mixtures was removed and mixed with 300 μL acetonitrile containing 5 ng/mL terfenadine and 10 ng/mL tolbutamide as internal standards to quench the reaction. The resulting mixture was centrifuged at 4000 rpm, 4° C. for 15 minutes, and 100 μL supernatant was ready for LC-MS/MS analysis to measure the formation of acid metabolite.
Acquity Ultra Performance LC system from Waters was used for sample analysis. The chromatography was performed on a reverse phase Kinetex 2.6 μm C18 column, 2.1×30 mm, 100 Å. The mobile phase A comprised of 0.1% formic acid in water and mobile phase B comprised of 0.1% formic acid in acetonitrile with a 2-min run time at the flow rate of 0.8 mL/min for the acid metabolite from positive control or a 1.5 min run time at the flow rate of 0.9 mL/min for the acid metabolite of test compounds. The mass spectrometer (API-5500 and API Q Trap 4000 Applied Biosystems/MDS SCIEX Instruments, Framingham, MA, USA) was operated under ESI positive or negative ion MRM mode.
The formation of acid metabolite was monitored and quantified using one calibration point of 1 μM. The observed rate constant (ke) for the acid metabolite formation was calculated by plotting the metabolite concentration versus time of incubation with the slope being ke and is shown in Table 1.

In assay [2] the test system is T3-regulated genes. Kind of assay: gene expression in brain and liver after 7 days PO QD dosing. The class given is in vivo, Female C57BL/6 mice. To be noted: Mus musculus, PO QD 7 days, 4 or 8 h after last dose. The method, then: Female C57BL/6 mice (n=5/group), 6-8 weeks old, were acclimated to the study room for at least 3 days before dose administration in the studies. Mice were dosed at 5 mL/kg based on most recent body weight, collected once for the duration of the study. Based on most recent body weight, collected once for the duration of the study, mice were placed into weight-matched treatment dosing cohorts. Mice were given a single administration of PFI or vehicle orally (PO) daily (n=5/group) for 7 days at time=−1 hour. Following the PFI (100 μg/kg) or vehicle dose (10 mL/kg, p.o.), animals were given test article daily at time=0 hour. Test article administration one of eight dose levels (0.1, 0.3, 1, 3, 10, 30, 100 or 300 μg/kg) on Days 1-7 for a total of seven doses. Mice were dosed PO, QD for 7 days with (A) active metabolite or (B) prodrug alone; (C) prodrug+PFI (LL-650177) or (D) prodrug+GFI. […] RNA from samples harvested 4 hours after final dose was quantified using a hybridization-based in situ RNA quantification method (NanoString, Seattle, WA), as described below. RNA from samples harvested 8 hours after final dose was quantified using a hybridization-based in situ RNA quantification method (QuantiGene Plex), as described below. […]

Read-outs that look alike come from different tables or passages of the source.

Turning to `CNC(=O)COc1cc(Cl)c(Cc2ccc(O)c(C(C)C)c2)c(Cl)c1` [Compound 1], in assay [1], the ke entry was “A (ke is more than or equal to 0.1)”. The ED50 in assay [2] (gene expression in brain, read-out: Brain (ED50 mg/kg)) came out at 0.044 mg/kg; in assay [2] (gene expression in liver, read-out: Liver (ED50 mg/kg)), 0.0025 mg/kg.
